Experiments:
Assay type in all cases: binding
[1] = target: T1, GT198 DBD fragment 126-217 (Homo sapiens, UniProt Q9P2W1); assay: competition with Oregon green-taxol on protein-coated plates, fluorescence
T1 construct: gene PSMC3IP
T1 sequence (Q9P2W1 126-217): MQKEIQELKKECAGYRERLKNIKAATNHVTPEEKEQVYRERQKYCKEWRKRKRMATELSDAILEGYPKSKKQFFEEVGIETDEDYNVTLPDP

[2] = target: T1, GT198 DBD fragment 126-217; assay: competition with biotinylated ssDNA on protein-coated plates, streptavidin-HRP chemiluminescence
[3] = target: T2, GT198 (wild type full length, His-tagged) (Homo sapiens, UniProt Q9P2W1); assay: competition with Oregon green-taxol on protein-coated plates, fluorescence
T2 construct: gene PSMC3IP; full length aa 1-217, N-terminal His tag kept, E. coli BL21(DE3)pLysS, Ni-NTA; homodimer
T2 sequence (Q9P2W1 1-217): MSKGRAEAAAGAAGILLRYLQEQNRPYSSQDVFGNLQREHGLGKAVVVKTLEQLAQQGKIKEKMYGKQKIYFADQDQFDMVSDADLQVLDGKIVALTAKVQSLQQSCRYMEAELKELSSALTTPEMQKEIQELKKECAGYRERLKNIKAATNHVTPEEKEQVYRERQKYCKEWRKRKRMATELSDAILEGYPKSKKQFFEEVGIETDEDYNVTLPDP

[4] = target: T2, GT198 (wild type full length, His-tagged); assay: competition with biotinylated ssDNA on protein-coated plates, streptavidin-HRP chemiluminescence

## CC(=O)O[C@H]1C(=O)[C@@]2(C)[C@H]([C@H](OC(=O)c3ccccc3)[C@]3(O)C[C@H](OC(=O)[C@H](O)[C@@H](NC(=O)c4ccccc4)c4ccccc4)C(C)=C1C3(C)C)[C@]1(OC(C)=O)CO[C@@H]1C[C@@H]2O [taxol]
[1]
  IC50: 15.2 nM
[2]
  IC50: 7.3 nM
[3]
  IC50: 8.8 nM
[4]
  IC50: 8.6 nM

From paper doi:10.1101/675579v1, “Oncoprotein GT198 is a direct target of taxol” (biorxiv, 2019)
